# Read-outs that look alike come from different tables or passages of the source.
# Molecular target: T1, recombinant full-length HSET (Homo sapiens, UniProt Q9BW19)
# T1 construct: 5 nM full-length human N-terminal His-tag HSET; His-tag (N)
# T1 sequence (Q9BW19 1-673): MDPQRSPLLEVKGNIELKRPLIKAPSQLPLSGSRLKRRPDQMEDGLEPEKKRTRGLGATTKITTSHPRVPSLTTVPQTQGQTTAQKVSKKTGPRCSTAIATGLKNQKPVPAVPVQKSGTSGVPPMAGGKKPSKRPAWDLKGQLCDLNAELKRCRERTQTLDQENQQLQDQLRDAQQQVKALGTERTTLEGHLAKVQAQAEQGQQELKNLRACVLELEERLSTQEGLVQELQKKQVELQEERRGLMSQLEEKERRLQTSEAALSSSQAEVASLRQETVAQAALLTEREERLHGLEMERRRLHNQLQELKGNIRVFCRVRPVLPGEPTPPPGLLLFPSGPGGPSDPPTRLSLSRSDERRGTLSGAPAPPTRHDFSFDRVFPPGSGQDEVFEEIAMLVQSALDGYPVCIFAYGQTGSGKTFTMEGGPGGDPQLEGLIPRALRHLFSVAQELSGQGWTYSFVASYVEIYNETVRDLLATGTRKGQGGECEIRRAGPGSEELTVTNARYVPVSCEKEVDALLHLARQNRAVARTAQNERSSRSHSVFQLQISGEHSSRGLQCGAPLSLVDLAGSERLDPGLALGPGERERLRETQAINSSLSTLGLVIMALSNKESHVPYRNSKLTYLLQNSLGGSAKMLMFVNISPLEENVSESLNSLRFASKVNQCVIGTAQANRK
# Assay: ADP-Glo HSET assay (3 μM ATP), microtubule-stimulated ATPase
# Assay type: biochemical
# Conditions: for HSET inhibitory activity (in words): HSET ADP-Glo
# Procedure: The HSET or Eg5 ATPase activity was measured using the ADP-Glo Kinase Assay kit (Promega, V9102). The assays were run using final concentrations of 5 nM full-length human N-terminal His-tag HSET or 4 nM GST-tagged Eg5 motor domain protein (Cytoskeleton, EG01) and an assay buffer containing 20 mM HEPES pH 6.8, 10 mM MgCl2, 0.25 mM EGTA, 0.4 mM Triton X-100, and 1 mM DTT. Preformed microtubules (Universal Biologicals Cambridge, bovine MT001-XL, or porcine MT002-XL), which were reconstituted in 15 mM PIPES pH 7, 1 mM MgCl2, and 20 μM paclitaxel, were present at a final assay concentration of 70 μg/mL. A reaction volume of 5 μL was used in Proxiplate 384 plus white assay plates (PerkinElmer, 6008280). To measure compound inhibition, 100 nL of compound dissolved in DMSO or DMSO alone was preincubated with the HSET and microtubules for 10 min before 3 μM Ultra-Pure ATP was added to start the ATPase reaction for the 3 μM ATP HSET assay. For the 500 μM ATP HSET assay, the addition of 500 μM Ultra-Pure ATP was used. For the Eg5 ATPase assay, 4.8 μM Ultra-Pure ATP was used. All reactions were incubated at 25 °C for 80 min and then stopped by the addition of 5 μL of the ADP-Glo reagent. 10 μL of Kinase Detection Reagent was then added after a further 45 min of incubation. The luminescence was read after 45 min on a PheraStar FSX plate reader (BMG Labtech). The data processing was performed using Dotmatics Studies software package. Percentage inhibition was determined based on normalization to high controls (0% inhibition, all reagents with 100 nL of DMSO alone) and low controls (100% inhibition […], without HSET). The IC50 values for each compound were determined using a four-parameter logistic curve fit of % inhibition versus concentration.
# [1] = LE = −1.4Log(IC50 [M])/number of non-hydrogen atoms (Table 2)
# [2] = LLE = −Log(IC50 [M]) – cLogP (MoKa) (Table 2)
# [3] = preformed microtubules, 3 μM ATP, mean (±SD) n ≥ 3, >200 from a single determination (Table 2), read-out: HSET ADP-Glo IC50
# [4] = LE = −1.4Log(IC50 [M])/number of non-hydrogen atoms (Table 1)
# [5] = LLE = −Log(IC50 [M]) – cLogP (MoKa) (Table 1)
# [6] = preformed microtubules, 3 μM ATP, mean (±SD) n ≥ 3, >200 from a single determination (Table 1), read-out: HSET ADP-Glo IC50
compound,measurement,setting,value
"CCCOC(=O)c1cc(NC(=O)CCNC(=O)c2cccc(-c3noc(C)n3)c2)nn1C [Compound 28, Propyl 1-Methyl-3-(3-(3-(5-methyl-1,2,4-oxadiazol-3-yl)benzamido)propanamido)-1H-pyrazole-5-carboxylate]",LE,[1],0.30
same,LLE,[2],4.7
same,IC50,[3],0.157 µM
"CCOC(=O)c1sc(NC(=O)CCNC(=O)c2cccc(-c3nnc(C)o3)c2)nc1C [Compound 16, Ethyl 4-Methyl-2-(3-(3-(5-methyl-1,3,4-oxadiazol-2-yl)benzamido)propanamido)thiazole-5-carboxylate]",LE,[4],0.3
same,LLE,[5],4.4
same,IC50,[6],0.26 µM
"CCOC(=O)c1sc(NC(=O)CCNC(=O)c2cccc(-c3nc(C)no3)c2)nc1C [Compound 17, Ethyl 4-Methyl-2-(3-(3-(3-methyl-1,2,4-oxadiazol-5-yl)benzamido)propanamido)thiazole-5-carboxylate]",LE,[4],0.32
same,LLE,[5],4.3
same,IC50,[6],0.101 µM
"CCOC(=O)c1sc(NC(=O)CCNC(=O)c2cccc(Cl)c2)nc1C [Compound 6, Ethyl 2-(3-(3-Chlorobenzamido)propanamido)-4-methylthiazole-5-carboxylate]",HSET inhibitory activity (in words),,ablated the activity
same,IC50,[6],> 200 µM
"CCOC(=O)c1sc(NC(=O)CCNC(=O)c2cccc(-c3ccccc3)c2)nc1C [Compound 12, Ethyl 2-(3-([1,1′-Biphenyl]-3-carboxamido)propanamido)-4-methylthiazole-5-carboxylate]",LE,[4],0.25
same,LLE,[5],1.2
same,IC50,[6],2.44 µM
"CCOC(=O)c1sc(NC(=O)CCN(C)C(=O)c2cccc(-c3noc(C)n3)c2)nc1C [Compound 24, Ethyl 4-Methyl-2-(3-(N-methyl-3-(5-methyl-1,2,4-oxadiazol-3-yl)benzamido)propanamido)thiazole-5-carboxylate]",LE,[1],0.19
same,LLE,[2],2.1
same,IC50,[3],44.4 µM
same,fold reduction in HSET potency,relative to 13,700 fold
"CCOC(=O)c1sc(NC(=O)CCCNC(=O)c2cccc(-c3noc(C)n3)c2)nc1C [Compound 22, Ethyl 4-Methyl-2-(4-(3-(5-methyl-1,2,4-oxadiazol-3-yl)benzamido)butanamido)thiazole-5-carboxylate]",HSET inhibitory activity (in words),,abolished the HSET activity
same,IC50,[3],> 200 µM
"CCOC(=O)c1sc(N(C)C(=O)CCNC(=O)c2cccc(-c3noc(C)n3)c2)nc1C [Compound 23, Ethyl 4-Methyl-2-(N-methyl-3-(3-(5-methyl-1,2,4-oxadiazol-3-yl)benzamido)propanamido)thiazole-5-carboxylate]",LE,[1],0.31
same,LLE,[2],4.6
same,IC50,[3],0.089 µM
"CCOC(=O)c1sc(NC(=O)CCNC(C)=O)nc1C [Compound 8, ethyl 2-(3-acetamidopropanamido)-4-methylthiazole-5-carboxylate]",HSET inhibitory activity (in words),,ablated the activity
same,IC50,[6],> 200 µM
"CCOC(=O)c1sc(NC(=O)CCNC(=O)c2cccc(OC)c2)nc1C [Compound 11, Ethyl 2-(3-(3-Methoxybenzamido)propanamido)-4-methylthiazole-5-carboxylate]",LE,[4],0.28
same,LLE,[5],2.8
same,IC50,[6],3.54 µM
"CCNC(=O)c1sc(NC(=O)CCNC(=O)c2cccc(C)c2)nc1C [Compound 7, N-Ethyl-4-methyl-2-(3-(3-methylbenzamido)propanamido)thiazole-5-carboxamide]",HSET inhibitory activity (in words),,no activity
same,IC50,[6],> 200 µM
"Cc1csc(NC(=O)CCNC(=O)c2cccc(-c3noc(C)n3)c2)n1 [Compound 20, 3-(5-Methyl-1,2,4-oxadiazol-3-yl)-N-(3-((4-methylthiazol-2-yl)amino)-3-oxopropyl)benzamide]",IC50,[3],> 200 µM
same,fold reduction in HSET potency,relative to 13,3000 fold
"CCOC(=O)c1sc(NC(=O)CCNC(=O)c2cccc(CC)c2)nc1C [Compound 5, Ethyl 2-(3-(3-Ethylbenzamido)propanamido)-4-methylthiazole-5-carboxylate]",LE,[4],0.29
same,LLE,[5],2.2
same,IC50,[6],2.32 µM
"CCOC(=O)c1sc(NC(=O)C[C@H](C)NC(=O)c2cccc(-c3noc(C)n3)c2)nc1C [Compound 30, Ethyl 4-Methyl-2-[[(3S)-3-[[3-(5-methyl-1,2,4-oxadiazol-3-yl)benzoyl]amino]butanoyl]amino]thiazole-5-carboxylate]",LE,[1],0.32
same,LLE,[2],4.1
same,IC50,[3],0.061 µM
"CCOC(=O)c1cnc(NC(=O)CCNC(=O)c2cccc(-c3noc(C)n3)c2)s1 [Compound 19, Ethyl 2-(3-(3-(5-Methyl-1,2,4-oxadiazol-3-yl)benzamido)propanamido)thiazole-5-carboxylate]",inhibition at 4 µM,"4μM compound, 3 μM ATP",50%
same,fold reduction in HSET potency,relative to 13,65 fold
same,IC50,"supplementary CSV, read-out: HSET ADP-Glo IC50",> 4 µM
"CCOC(=O)c1sc(C(=O)NCCNC(=O)c2cccc(-c3noc(C)n3)c2)nc1C [Compound 25, Ethyl 4-Methyl-2-((2-(3-(5-methyl-1,2,4-oxadiazol-3-yl)benzamido)ethyl)carbamoyl)thiazole-5-carboxylate]",LE,[1],0.29
same,LLE,[2],3.9
same,IC50,[3],0.405 µM
same,fold reduction in HSET potency,relative to 13,six-fold
"CCOC(=O)c1sc(NC(=O)CCNC(=O)C2CCCC(C)C2)nc1C (stereo not shown) [Compound 10, Ethyl 4-Methyl-2-(3-(3-methylcyclohexane-1-carboxamido)propanamido)thiazole-5-carboxylate]",HSET inhibitory activity (in words),,ablated the activity
same,IC50,[6],> 200 µM
"CCOC(=O)c1nc(NC(=O)CCNC(=O)c2cccc(-c3noc(C)n3)c2)cn1C [Compound 29, Ethyl 1-Methyl-4-(3-(3-(5-methyl-1,2,4-oxadiazol-3-yl)benzamido)propanamido)-1H-imidazole-2-carboxylate]",HSET inhibitory activity (in words),,no HSET inhibition
same,IC50,[3],> 200 µM
"CCOC(=O)c1sc(NC(=O)CCNC(=O)c2ccccc2C)nc1C [Compound 3, Ethyl 4-methyl-2-(3-(2-methylbenzamido)propanamido)thiazole-5-carboxylate]",inhibition at 200 µM,"200μM compound, 3 μM ATP, single determination",52%
same,fold reduction in HSET potency,relative to 2,seventy-fold
"CCOC(=O)c1sc(NC(=O)CCNC(=O)c2cccc(-c3n[nH]c(C)n3)c2)nc1C [Compound 15, Ethyl 4-Methyl-2-(3-(3-(5-methyl-1H-1,2,4-triazol-3-yl)benzamido)propanamido)thiazole-5-carboxylate]",HSET inhibitory activity (in words),,eliminated potency
same,IC50,[6],> 200 µM
"CCOC(=O)c1ccc(NC(=O)CCNC(=O)c2cccc(-c3noc(C)n3)c2)nc1C [Compound 27, Ethyl 2-Methyl-6-(3-(3-(5-methyl-1,2,4-oxadiazol-3-yl)benzamido)propanamido)nicotinate]",LE,[1],0.22
same,LLE,[2],2.5
same,IC50,[3],11.5 µM
same,fold reduction in HSET potency,relative to 13,greater than 180 fold
"CCOC(=O)c1sc(NC(=O)CCNC(=O)c2ccc(C)cc2)nc1C [Compound 4, Ethyl 4-Methyl-2-(3-(4-methylbenzamido)propanamido)thiazole-5-carboxylate]",IC50,"3 μM ATP, curve plateaued, read-out: mean concentration observed at 50% inhibition (HSET ADP-Glo)",13 µM
same,LE,[4],0.29
same,LLE,[5],2.2
same,IC50,[6],4.73 µM
